The structures appear in SMILES notation. Like-named read-outs stand apart in the source and are kept apart here.

One experiment concerns the target Wee1 (h) (Homo sapiens, UniProt P30291). Description: Wee1 kinase (h) detection method, [γ-33P]-ATP filter assay. The class given is biochemical.
Another experiment relates to LoVo cells. Put plainly: MTT based cell viability assay on LoVo cells. To be noted: Homo sapiens, LoVo, 72 h, 3 d, read-out: IC50, growth inhibition of LoVo cells. The essentials: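 Inhibition of LoVo proliferation was derived as IC50 from a sigmoidal dose-response fit of cell survival. Readout was MTT (0.5 mg/mL, 4 h) with absorbance at 552/630/690 nm, after 3-day treatment at 37 °C. Eight-point series from 10 μM to 0.01 μM, DMSO control, 1% DMSO final.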

For a further experiment, the system named is NCI-H1299 cells. Put plainly: MTT based cell viability assay on NCI-H1299 cells. Particulars: Homo sapiens, read-out: IC50, growth inhibition of NCI-H1299 cells. The essentials: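 Viability read-out was MTT reduction (0.5 mg/mL, 4 h, absorbance 552/630/690 nm) after 3-day compound exposure at 37 °C of NCI-H1299 cells seeded at 1000 per well. Dilutions spanned 10 μM–0.01 μM in DMSO, final DMSO 1‰. Survival-versus-concentration curves were fitted sigmoidally to give IC50.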

Sequence of Wee1 (h) (P30291 whole entry): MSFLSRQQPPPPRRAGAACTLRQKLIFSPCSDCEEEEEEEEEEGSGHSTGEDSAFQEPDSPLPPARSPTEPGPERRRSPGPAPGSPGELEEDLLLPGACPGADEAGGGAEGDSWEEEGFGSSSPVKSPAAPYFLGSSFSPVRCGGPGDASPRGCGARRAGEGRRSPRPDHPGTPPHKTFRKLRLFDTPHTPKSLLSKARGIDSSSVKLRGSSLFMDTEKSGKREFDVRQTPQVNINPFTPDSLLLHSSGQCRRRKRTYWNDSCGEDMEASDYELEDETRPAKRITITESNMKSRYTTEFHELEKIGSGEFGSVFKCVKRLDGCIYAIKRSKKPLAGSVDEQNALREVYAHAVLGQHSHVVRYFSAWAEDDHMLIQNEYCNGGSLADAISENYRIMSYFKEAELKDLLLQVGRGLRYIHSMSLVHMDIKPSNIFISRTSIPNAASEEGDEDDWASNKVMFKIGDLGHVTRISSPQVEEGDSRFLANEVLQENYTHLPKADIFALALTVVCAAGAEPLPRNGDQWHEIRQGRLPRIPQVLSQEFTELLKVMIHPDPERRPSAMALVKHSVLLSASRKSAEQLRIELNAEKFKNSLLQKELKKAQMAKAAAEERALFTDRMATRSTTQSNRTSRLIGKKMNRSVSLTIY

By IC50 is commonly meant the concentration needed to halve the response being measured. With `CN1CCN(c2c(Cl)cc(Nc3ncc4c(n3)N3CCN=C3N(c3c(Cl)cccc3Cl)C4=O)cc2Cl)CC1` [Example 150, 6-(2,6-Dichlorophenyl)-2-((3,5-dichloro-4-(4-methylpiperazin-1-yl)phenyl)amino)-8,9-dihydroimidazo[1,2-a]pyrimido[5,4-e]pyrimidin-5(6H)-one], the figures for the “Inh. (%) of Wee1 kinase enzyme activity” value at Wee1 (h) (C 0.01 μm compound), on Wee1 (h) (C 0.1 μm compound) and at Wee1 (h) (C 1 μm compound) were 20%, 81% and 93%, respectively. Further, the concentration for half-maximal inhibition (IC50) with LoVo cells came out at 116 nM; in the experiment with NCI-H1299 cells (NCI-H1299, NCI-H1299 cells), 347 nM.
In the case of `Cc1cc(Nc2ncc3c(n2)N2CCN=C2N(c2c(Cl)cccc2Cl)C3=O)cc(Cl)c1N1CCN(C)CC1` [Example 151, 6-(2,6-Dichlorophenyl)-2-((3-chloro-5-methyl-4-(4-methylpiperazin-1-yl)phenyl)amino)-8,9-dihydroimidazo[1,2-a]pyrimido[5,4-e]pyrimidin-5(6H)-one], the entries for the “Inh. (%) of Wee1 kinase enzyme activity” value on Wee1 (h) (C 0.01 μm compound), at Wee1 (h) (C 0.1 μm compound) and on Wee1 (h) (C 1 μm compound) were 42%, 98% and 97%, respectively. Moreover, the IC50 amounted to 30.8 nM with LoVo cells and 175 nM in the experiment on NCI-H1299 cells (NCI-H1299, NCI-H1299 cells).
Take `CN1CCN(c2c(Cl)cc(Nc3ncc4c(n3)N3CCN=C3N(c3c(Cl)cccc3Cl)C4=O)cc2C(F)(F)F)CC1` [Example 152, 6-(2,6-Dichlorophenyl)-2-((3-chloro-4-(4-methylpiperazin-1-yl)-5-(trifluoromethyl)phenyl)amino)-8,9-dihydroimidazo[1,2-a]pyrimido[5,4-e]pyrimidin-5(6H)-one]: the “Inh. (%) of Wee1 kinase enzyme activity” value at Wee1 (h) (C 1 μm compound) is listed as 88%. Also, the IC50 came to 139 nM in the experiment with LoVo cells and 1950 nM in the experiment with NCI-H1299 cells (NCI-H1299, NCI-H1299 cells).
Turning to `COc1cc(Nc2ncc3c(n2)N2CCN=C2N(c2c(Cl)cccc2Cl)C3=O)cc(Cl)c1N1CCN(C)CC1` [Example 153, 6-(2,6-Dichlorophenyl)-2-((3-chloro-5-methoxy-4-(4-methylpiperazin-1-yl)phenyl)amino)-8,9-dihydroimidazo[1,2-a]pyrimido[5,4-e]pyrimidin-5(6H)-one], the “Inh. (%) of Wee1 kinase enzyme activity” value on Wee1 (h) (C 0.01 μm compound) was determined as 30%; on Wee1 (h) (C 0.1 μm compound) it was 84%; at Wee1 (h) (C 1 μm compound) it was 94%. Moreover, the 50% inhibitory concentration (IC50) with LoVo cells is 56.3 nM; with NCI-H1299 cells (NCI-H1299, NCI-H1299 cells), 235 nM.
On the same counts, the results for `CN1CCN(c2c(F)cc(Nc3ncc4c(n3)N3CCN=C3N(c3c(Cl)cccc3Cl)C4=O)cc2Br)CC1` [Example 154, 6-(2,6-Dichlorophenyl)-2-((3-bromo-5-fluoro-4-(4-methylpiperazin-1-yl)phenyl)amino)-8,9-dihydroimidazo[1,2-a]pyrimido[5,4-e]pyrimidin-5(6H)-one] are 25%, 72%, 96%, 63.3 nM and 174 nM.
For `CN1CCN(c2c(Cl)cc(Nc3ncc4c(n3)N3CCN=C3N(c3c(Cl)cccc3Cl)C4=O)cc2Br)CC1` [Example 155, 6-(2,6-Dichlorophenyl)-2-((3-bromo-5-chloro-4-(4-methylpiperazin-1-yl)phenyl)amino)-8,9-dihydroimidazo[1,2-a]pyrimido[5,4-e]pyrimidin-5(6H)-one] the same measures were 16%, 66%, 94%, 74.1 nM and 109 nM.
As for `Cc1cc(Nc2ncc3c(n2)N2CCN=C2N(c2c(Cl)cccc2Cl)C3=O)cc(Br)c1N1CCN(C)CC1` [Example 156, 6-(2,6-Dichlorophenyl)-2-((3-bromo-5-methyl-4-(4-methylpiperazin-1-yl)phenyl)amino)-8,9-dihydroimidazo[1,2-a]pyrimido[5,4-e]pyrimidin-5(6H)-one], the entries for the “Inh. (%) of Wee1 kinase enzyme activity” value on Wee1 (h) (C 0.01 μm compound), at Wee1 (h) (C 0.1 μm compound) and on Wee1 (h) (C 1 μm compound) were 19%, 81% and 96%, respectively. For the same compound, the IC50 in the experiment with LoVo cells worked out at 62.7 nM; in the experiment with NCI-H1299 cells (NCI-H1299, NCI-H1299 cells), 150 nM.
`COc1cc(Nc2ncc3c(n2)N2CCN=C2N(c2c(Cl)cccc2Cl)C3=O)cc(Br)c1N1CCN(C)CC1` [Example 157, 6-(2,6-Dichlorophenyl)-2-((3-bromo-5-methoxy-4-(4-methylpiperazin-1-yl)phenyl)amino)-8,9-dihydroimidazo[1,2-a]pyrimido[5,4-e]pyrimidin-5(6H)-one]: on Wee1 (h) (C 1 μm compound), the “Inh. (%) of Wee1 kinase enzyme activity” value came to 91%. In addition, the IC50 with LoVo cells came to 38.6 nM; in the experiment with NCI-H1299 cells (NCI-H1299 cells), 222 nM.
With `Cc1cc(Nc2ncc3c(n2)N2CCN=C2N(c2c(Cl)cccc2Cl)C3=O)cc(C)c1N1CCN(C)CC1` [Example 158, 6-(2,6-Dichlorophenyl)-2-((3,5-dimethyl-4-(4-methylpiperazin-1-yl)phenyl)amino)-8,9-dihydroimidazo[1,2-a]pyrimido[5,4-e]pyrimidin-5(6H)-one], the “Inh. (%) of Wee1 kinase enzyme activity” value on Wee1 (h) (C 0.01 μm compound) is 27%; at Wee1 (h) (C 0.1 μm compound), 84%; on Wee1 (h) (C 1 μm compound), 95%. Also, the IC50 with LoVo cells was found to be 58.5 nM; in the experiment on NCI-H1299 cells (NCI-H1299, NCI-H1299 cells), 105 nM.
`Cc1cc(Nc2ncc3c(n2)N2CCN=C2N(c2c(Cl)cccc2Br)C3=O)cc(F)c1N1CCC(N(C)C)CC1` [Example 160, 6-(2-Bromo-6-chlorophenyl)-2-((4-(4-(dimethylamino)piperidin-1-yl)-3-fluoro-5-methylphenyl)amino)-8,9-dihydroimidazo[1,2-a]pyrimido[5,4-e]pyrimidin-5(6H)-one]: the “Inh. (%) of Wee1 kinase enzyme activity” value at Wee1 (h) (C 0.01 μm compound) is 31%; at Wee1 (h) (C 0.1 μm compound), 85%; at Wee1 (h) (C 1 μm compound) it was 98%. The IC50 with LoVo cells turned out to be 27.3 nM; with NCI-H1299 cells (NCI-H1299, NCI-H1299 cells), 62.8 nM.
In the case of `CN1CCN(c2ccc(Nc3ncc4c(n3)N3CCN=C3N(c3c(Cl)cccc3Br)C4=O)cc2Cl)CC1` [Example 161, 6-(2-Bromo-6-chlorophenyl)-2-((3-chloro-4-(4-methylpiperazin-1-yl)phenyl)amino)-8,9-dihydroimidazo[1,2-a]pyrimido[5,4-e]pyrimidin-5(6H)-one], the “Inh. (%) of Wee1 kinase enzyme activity” value came to 27% on Wee1 (h) (C 0.01 μm compound), 72% at Wee1 (h) (C 0.1 μm compound) and 97% on Wee1 (h) (C 1 μm compound). Further, the concentration for half-maximal inhibition (IC50) in the experiment on LoVo cells turned out to be 93.3 nM; with NCI-H1299 cells (NCI-H1299 cells) it was 217 nM.
Regarding `CN1CCN(c2ccc(Nc3ncc4c(n3)N3CCN=C3N(c3c(Cl)cccc3Br)C4=O)cc2Br)CC1` [Example 162, 6-(2-Bromo-6-chlorophenyl)-2-((3-bromo-4-(4-methylpiperazin-1-yl)phenyl)amino)-8,9-dihydroimidazo[1,2-a]pyrimido[5,4-e]pyrimidin-5(6H)-one], the entries for the “Inh. (%) of Wee1 kinase enzyme activity” value on Wee1 (h) (C 0.01 μm compound), at Wee1 (h) (C 0.1 μm compound) and at Wee1 (h) (C 1 μm compound) were 22%, 86% and 98%, respectively. Besides, the values for the IC50 with LoVo cells and with NCI-H1299 cells (NCI-H1299 cells) were 65.2 nM and 207 nM, respectively.
On the same counts, the results for `Cc1cc(Nc2ncc3c(n2)N2CCN=C2N(c2c(Cl)cccc2Br)C3=O)ccc1N1CCN(C)CC1` [Example 163, 6-(2-Bromo-6-chlorophenyl)-2-((3-methyl-4-(4-methylpiperazin-1-yl)phenyl)amino)-8,9-dihydroimidazo[1,2-a]pyrimido[5,4-e]pyrimidin-5(6H)-one] are 25%, 87%, 99%, 62.5 nM and 97.8 nM.

The values above are taken from US11345711B2, “8,9-dihydroimidazo[1,2-a]pyrimido[5,4-e]pyrimidin-5(6H)-ones” (IMPACT THERAPEUTICS (SHANGHAI), INC, priority 2016, dated 2022).
